Results: ChEMBL document CHEMBL2007661, “Compounds: GSK PKIS; Assays: UNC Frye lab” (2012)
“And” between values parts separate entries of the source, which are not always exact repeats. Identical values can stand only once.

Columns and labels:
Settings in all cases: at 1 µM
[1] = molecular target: T1, Inhibitor of nuclear factor kappa-B kinase subunit alpha (Homo sapiens) (UniProt O15111)
T1 sequence (whole entry): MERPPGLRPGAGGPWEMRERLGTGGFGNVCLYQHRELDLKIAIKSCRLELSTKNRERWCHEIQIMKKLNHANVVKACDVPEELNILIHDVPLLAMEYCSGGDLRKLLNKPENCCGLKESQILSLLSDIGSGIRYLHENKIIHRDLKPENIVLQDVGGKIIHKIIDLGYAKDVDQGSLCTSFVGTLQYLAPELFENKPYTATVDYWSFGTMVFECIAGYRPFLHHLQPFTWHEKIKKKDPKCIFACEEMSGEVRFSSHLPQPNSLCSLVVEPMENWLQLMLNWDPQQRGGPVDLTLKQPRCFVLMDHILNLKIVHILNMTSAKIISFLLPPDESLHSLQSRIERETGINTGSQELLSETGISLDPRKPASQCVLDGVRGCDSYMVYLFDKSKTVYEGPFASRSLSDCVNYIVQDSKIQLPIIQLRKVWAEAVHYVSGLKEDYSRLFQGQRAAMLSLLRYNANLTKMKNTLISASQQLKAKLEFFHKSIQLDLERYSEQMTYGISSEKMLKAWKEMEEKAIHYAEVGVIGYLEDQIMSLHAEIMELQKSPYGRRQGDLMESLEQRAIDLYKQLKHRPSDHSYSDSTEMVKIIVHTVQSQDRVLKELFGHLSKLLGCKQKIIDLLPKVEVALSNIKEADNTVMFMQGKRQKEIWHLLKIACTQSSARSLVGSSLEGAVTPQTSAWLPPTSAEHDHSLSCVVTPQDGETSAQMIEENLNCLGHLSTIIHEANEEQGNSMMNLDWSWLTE

[2] = molecular target: T2, Inhibitor of nuclear factor kappa-B kinase subunit beta (Homo sapiens) (UniProt O14920)
T2 sequence (whole entry): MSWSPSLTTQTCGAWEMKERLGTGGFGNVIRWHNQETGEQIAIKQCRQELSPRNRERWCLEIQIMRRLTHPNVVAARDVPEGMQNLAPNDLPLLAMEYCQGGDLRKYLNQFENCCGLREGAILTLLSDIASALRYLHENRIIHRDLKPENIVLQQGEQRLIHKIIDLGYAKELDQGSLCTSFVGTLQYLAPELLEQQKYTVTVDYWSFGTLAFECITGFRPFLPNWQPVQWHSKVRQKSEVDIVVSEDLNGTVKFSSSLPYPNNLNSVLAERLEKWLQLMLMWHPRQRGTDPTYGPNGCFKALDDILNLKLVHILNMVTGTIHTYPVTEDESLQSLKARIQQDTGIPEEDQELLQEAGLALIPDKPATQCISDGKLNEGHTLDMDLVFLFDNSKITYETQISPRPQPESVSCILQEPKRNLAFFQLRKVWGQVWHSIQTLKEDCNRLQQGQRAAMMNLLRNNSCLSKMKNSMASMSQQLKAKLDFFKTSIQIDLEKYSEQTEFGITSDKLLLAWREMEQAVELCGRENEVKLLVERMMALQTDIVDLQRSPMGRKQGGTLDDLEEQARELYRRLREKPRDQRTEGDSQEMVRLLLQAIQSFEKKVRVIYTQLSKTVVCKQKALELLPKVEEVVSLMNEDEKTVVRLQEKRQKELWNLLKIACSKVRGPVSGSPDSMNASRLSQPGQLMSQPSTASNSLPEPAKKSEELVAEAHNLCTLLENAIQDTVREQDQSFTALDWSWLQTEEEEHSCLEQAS

[3] = molecular target: T3, Inhibitor of nuclear factor kappa-B kinase subunit epsilon (Homo sapiens) (UniProt Q14164)
T3 sequence (whole entry): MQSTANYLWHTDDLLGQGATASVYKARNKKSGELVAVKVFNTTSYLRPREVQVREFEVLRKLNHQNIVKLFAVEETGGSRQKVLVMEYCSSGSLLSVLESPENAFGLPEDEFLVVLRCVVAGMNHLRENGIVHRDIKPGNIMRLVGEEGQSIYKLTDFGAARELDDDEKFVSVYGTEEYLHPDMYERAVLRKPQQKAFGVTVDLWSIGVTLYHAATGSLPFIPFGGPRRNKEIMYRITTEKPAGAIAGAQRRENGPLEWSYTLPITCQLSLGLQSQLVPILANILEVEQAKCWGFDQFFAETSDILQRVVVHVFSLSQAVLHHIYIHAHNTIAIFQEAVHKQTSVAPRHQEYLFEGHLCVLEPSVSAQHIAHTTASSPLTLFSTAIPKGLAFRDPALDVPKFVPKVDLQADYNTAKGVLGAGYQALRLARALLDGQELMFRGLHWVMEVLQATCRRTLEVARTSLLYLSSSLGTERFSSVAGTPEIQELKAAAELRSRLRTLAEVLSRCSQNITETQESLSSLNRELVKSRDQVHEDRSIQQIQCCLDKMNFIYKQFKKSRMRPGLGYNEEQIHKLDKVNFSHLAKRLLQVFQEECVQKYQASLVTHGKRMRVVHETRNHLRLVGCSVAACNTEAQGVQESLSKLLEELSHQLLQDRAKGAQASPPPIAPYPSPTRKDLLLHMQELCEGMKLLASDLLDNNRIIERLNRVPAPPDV

| Structure (SMILES) | inhibition [1] | inhibition [2] | inhibition [3] |
| --- | --- | --- | --- |
| CCn1c(-c2nonc2N)nc2c(C#CC(C)(C)O)nc(OCCNC)cc21 | 6% and 5% | -2% | 44% and 46% |
| O=C(Nc1n[nH]c2nnc(-c3cccnc3)cc12)C1CC1 | 5% and 7% | 2% | -1% and 1% |
| COc1cccc(-n2nc(C)c3c(N/N=C(\C)c4ccncc4)ncnc32)c1 | 7% and 6% | -3% | 18% and 3% |
| CS(=O)(=O)CCNCc1ccc(-c2ccc3ncnc(Nc4ccc(OCc5ccccc5)cc4)c3c2)o1 | 3% | -2% and -3% | -1% |
| CCn1c(-c2nonc2N)nc2ccncc21 | 4% and 1% | -4% and -5% | -2% and -1% |
| CCn1cc(-c2ccnc3[nH]ccc23)c(-c2cccc(NC(=O)Nc3ccc(OCc4ccccc4)cc3)c2)n1 | -3% | -3% and 0% | 0% and 1% |
| O=C(Nc1ccc(Oc2ccc3[nH]c(NC(=O)c4ccco4)nc3c2)cc1)Nc1cc(C(F)(F)F)ccc1F | -1% | 0% and 1% | 1% and 0% |
| COc1cc(Nc2ncc(-c3ccccc3)o2)cc(OC)c1OC | 1% and 0% | 15% and 0% | 17% and 13% |
| Nc1nc(-c2ccccn2)c(-c2ccc3ncccc3n2)s1 | 5% | -4% and -7% | 0% and -2% |
| COc1cc2c(cc1Nc1nc(N3CCc4ccccc43)c3cc[nH]c3n1)N(C(=O)CN(C)C)CC2 | 3% | -6% | 21% and 19% |
| COC(=O)Nc1nc2cc(Oc3ccc(NC(=O)Nc4cccc(C(=O)O)c4)cc3)ccc2[nH]1 | 2% and 4% | -3% and 3% | 0% and -2% |
| O=C(O[C@H]1CN[C@H](C#Cc2cc3ncnc(Nc4ccc5c(cnn5Cc5ccccc5)c4)c3s2)C1)N1CCOCC1 | 4% and 3% | -4% and -7% | 1% and 2% |
| CN(C)C(=O)O[C@H]1CN[C@H](C#Cc2cc3ncnc(Nc4ccc(OCc5cccc(F)c5)c(Cl)c4)c3s2)C1 | 2% and 1% | 4% and -2% | 0% and 2% |
| CCCN(CCS(C)(=O)=O)Cc1ccc(-c2ccc3ncnc(Nc4ccc(OCc5cccc(F)c5)c(Cl)c4)c3c2)o1 | 2% and -1% | -1% and -5% | 1% and 3% |
| CS(=O)(=O)CCNCc1nc(-c2ccc3ncnc(Nc4ccc(OCc5cccc(C(F)(F)F)c5)cc4)c3c2)cs1 | -9% and 5% | -2% and -1% | 0% |
| COc1cc2ncn(-c3cc(OCc4ccccc4C(F)(F)F)c(C(=O)N(C)C)s3)c2cc1OC | 1% and 0% | -3% and -1% | -1% |
| Cc1nc(-c2ccccc2)n2nc(NCCCN3CCOCC3)ncc12 | 1% | -2% and 2% | 3% and 4% |
| O=C1NC(=O)C(c2ccc(Cl)cc2)=C1Nc1ccc(Cl)c(C(=O)O)c1 | 3% | -5% and -2% | 1% and 2% |
| COc1ccc2[nH]c3c4[nH]c5ccc(OC)cc5c4c4c(c3c2c1)C(=O)NC4=O | 12% and 13% | -1% and -5% | 21% and 20% |

| Structure (SMILES) | inhibition [1] | inhibition [2] | inhibition [3] |
| --- | --- | --- | --- |
| COc1cccc(-n2ncc3c(N/N=C/c4ccc(F)cc4)ncnc32)c1 | 5% and 3% | 1% and -3% | 1% and 0% |
| CCc1ccc(Oc2nccc(-c3c(-c4ccc(F)cc4)ncn3C3CCNCC3)n2)cc1 | 3% and 2% | -7% and -6% | -3% and -4% |
| NC(=O)c1ccc(-c2nc(-c3ccccn3)c(-c3ccc4c(c3)OCO4)[nH]2)cc1 | -3% | 5% and 2% | -1% and -3% |
| NS(=O)(=O)c1ccc(Nc2ncc(-c3ccccc3)o2)cc1 | 4% and 3% | -2% and 2% | 2% and 3% |
| COc1cccc(-n2cnc3c(N/N=C/c4ccncc4)ncnc32)c1 | 2% and -3% | -3% and 4% | 1% and 0% |
| CN1CCC(C(=O)Nc2n[nH]c3nnc(-c4ccccc4)cc23)CC1 | 3% | -4% | -3% |
| Nc1ncnc2occ(-c3ccc(NC(=O)Nc4cccc(C(F)(F)F)c4)cc3)c12 | 3% | -7% and -9% | 19% and 16% |
| CC(C)COC(=O)c1ccc2c(c1)/C(=C/Nc1ccc(S(N)(=O)=O)cc1)C(=O)N2 | -4% and -9% | 0% and -1% | 94% |
| CN1CCC(n2cnc(-c3ccc(F)cc3)c2-c2ccnc(Nc3ccccc3)n2)CC1 | -1% and 0% | -3% and 2% | 0% and -2% |
| COC(=O)c1ccc2c(c1)C(=Cc1cc(Br)c(O)c(Br)c1)C(=O)N2 | -7% | 0% and -2% | 51% and 52% |
| CN(C)CCCNc1nccc(-c2c(-c3ccc(F)cc3)nn3cc(C(F)(F)F)ccc23)n1 | 2% and 3% | 2% and 0% | -1% and 0% |
| CS(=O)(=O)Nc1cccc(-c2ccc3c(NC(=O)C4CC4)n[nH]c3c2)c1 | 4% and 3% | -6% | 0% |
| Fc1ccc(-c2nn3ccccc3c2-c2ccncc2)cc1 | 7% and 5% | -5% | -4% and 2% |
| O=C(NCC1CC1)c1ccc(-c2cccc(C(=O)NC3CC3)c2)cc1 | -4% and -5% | 1% and 4% | -5% and 0% |
| CS(=O)(=O)CCNCc1ccc(-c2ccc3ncnc(Nc4ccc(OCc5ccccc5)c(Cl)c4)c3c2)o1 | 8% and 2% | 1% | 1% and -3% |
| Fc1cccc(COc2ccc(Nc3ncncc3C#Cc3ccccc3)cc2Cl)c1 | 2% and 5% | -6% and -3% | -4% and 0% |
| COC(=O)Nc1nc2ccc(Oc3ccc(NC(=O)Nc4cccc(Cl)c4)cc3)cc2[nH]1 | -3% and -2% | -2% and 0% | 2% and 1% |
| NC(=O)c1sc(-n2cnc3ccc(C(F)(F)F)cc32)cc1OCc1ccccc1Br | 1% and 0% | -1% and -4% | 2% and 1% |
| Nc1nc(-c2ccc3c(c2)C(=Cc2cc(Br)c(O)c(Br)c2)C(=O)N3)cs1 | 4% and 2% | -8% | 8% and 6% |
